Data as given in paper PMC9851200, “Multiparameter phenotypic screening for endogenous TFEB and TFE3 translocation identifies novel chemical series modulating lysosome function” (Autophagy, 2022).
Read-outs that look alike come from different tables or passages of the source.

How the values were obtained:
SH-SY5Y cells [1] = experiment: AK (adenylate kinase) release ToxiLight cytotoxicity assay; further: reference of the scale not given here
SH-SY5Y cells [2] = tested on: SH-SY5Y cells; further: reference of the scale not given here
SH-SY5Y cells [3] = experiment: Nuclear count from microscopy images (cellular growth and toxicity); further: reference of the scale not given here
endogenous TFE3 = experiment: TFE3 nuclear translocation, immunocytochemistry high-content imaging; format: cell-based
endogenous TFEB = experiment: TFEB nuclear translocation, immunocytochemistry high-content imaging; format: cell-based
[4] = PKIS2 primary screening, DQ Red BSA intensity
[5] = PKIS2 primary screening, DQ Red BSA spot count

Compound | AK (SH-SY5Y cells [1]; PKIS2 primary screening) | DQ Intensity (SH-SY5Y cells [2]; PKIS2 primary screening) | DQ Spot (SH-SY5Y cells [2]; PKIS2 primary screening) | Nuclear Count (SH-SY5Y cells [3]; PKIS2 primary screening) | TFE3 % (endogenous TFE3; PKIS2 primary screening) | TFEB % (endogenous TFEB; PKIS2 primary screening) | AK (SH-SY5Y cells [1]; PKIS2 primary screen) | DQ Intensity (SH-SY5Y cells [2]; PKIS2 primary screen, DQ Red BSA intensity) | DQ Spot (SH-SY5Y cells [2]; PKIS2 primary screen, DQ Red BSA spot count) | Nuclear Count (SH-SY5Y cells [3]; PKIS2 primary screen) | TFE3 % (endogenous TFE3; PKIS2 primary screen) | TFEB % (endogenous TFEB; PKIS2 primary screen) | DQ Intensity (SH-SY5Y cells [2]; [4]) | DQ Spot (SH-SY5Y cells [2]; [5])
CC1=C(C(=O)Nc2cc3cn[nH]c3cc2F)C(c2ccc(C(F)(F)F)cc2)CC(=O)N1 (stereo not drawn) [UNC10225339A] | 70.62 | 158.90 | 127.41 | 108.36 | 22.61% | 3.31% |  |  |  |  |  |  |  | 
Nc1ncnc2c1nc(-c1ccccc1)n2-c1ccccc1 [UNC10225340A] | 115.76 | 122.27 | 108.09 | 115.47 | 8.63% | 8.74% |  |  |  |  |  |  |  | 
CCS(=O)(=O)c1ccc(OC)c(Nc2nccc(-c3c(-c4cccc(NC(=O)c5c(F)cccc5F)c4)nn4ncccc34)n2)c1 [UNC10225342A] | 86.17 | 69.43 | 80.86 | 104.33 | 13.07% | 6.81% |  |  |  |  |  |  |  | 
O=c1cc(N2CCOCC2)nc2n(Cc3ccc(F)c(Cl)c3)ccn12 [UNC10225343A] | 80.61 | 102.25 | 107.68 | 115.81 | 7.68% | 4.66% |  |  |  |  |  |  |  | 
C[C@@H](Oc1cc(-n2cnc3ccc(-c4ccncc4)cc32)sc1C(N)=O)c1ccccc1Cl [UNC10225348A] | 91.16 | 133.73 | 158.98 | 41.11 | 36.52% | 10.36% |  |  |  |  |  |  |  | 
O=C(Nc1c(F)cccc1F)c1cc(C(=O)c2ccccc2F)c[nH]1 [UNC10225351A] |  |  |  |  |  |  | 106.59 | 115.15 | 113.72 | 134.69 | 7.96% | 3.75% |  | 
OCCCNc1nccc(-c2c(-c3cccc(C(F)(F)F)c3)nn3cc(C(F)(F)F)ccc23)n1 [UNC10225352A] | 111.75 | 93.14 | 97.34 | 112.73 | 11.93% | 4.95% |  |  |  |  |  |  |  | 
Cc1ccc(NC(=O)Nc2cc(C(C)(C)C)nn2-c2ccccc2)cc1 [UNC10225353A] | 76.54 | 116.80 | 100.99 | 116.98 | 7.76% | 9.78% |  |  |  |  |  |  |  | 
Cc1ccccc1Cn1ccn2c(=O)cc(N3CCOCC3)nc12 [UNC10225355A] | 91.19 | 95.37 | 115.18 | 89.36 | 15.51% | 2.12% |  |  |  |  |  |  |  | 
Cc1cccc(Nc2nc(N[C@H]3CCNC3)ncc2C(N)=O)c1.Cl [UNC10225356A] | 117.33 | 128.58 | 110.55 | 97.71 | 8.51% | 10.40% |  |  |  |  |  |  |  | 
Cc1cc(-c2c(-c3ccc(F)cc3)ncn2CCCN2CCOCC2)nc(N)n1 [UNC10225357A] | 146.53 | 102.69 | 106.97 | 103.52 | 18.76% | 6.16% |  |  |  |  |  |  |  | 
Clc1ccc(-c2nn3ncccc3c2-c2ccnc(Nc3ccc4c(c3)OCCO4)n2)cc1 [UNC10225358A] | 157.53 | 88.44 | 98.66 | 125.14 | 11.64% | 8.16% |  |  |  |  |  |  |  | 
Cc1ccc(NC(=O)Nc2ccc(Cl)c(C(F)(F)F)c2)cc1-c1ccc(C(=O)Nc2ccncc2)cc1 [UNC10225359A] | 88.88 | 70.67 | 82.92 | 100.74 | 18.34% | 9.28% |  |  |  |  |  |  |  | 
Oc1ccc2ncnc(Nc3ccc(OCc4ccccc4)cc3)c2c1 [UNC10225360A] | 98.47 |  |  | 101.58 | 13.64% | 5.47% |  |  |  |  |  |  | 120.31 | 114.21
CC(C)(C)n1cnc2c(N)ncnc21 [UNC10225362A] | 102.90 | 122.93 | 124.24 | 45.84 | 7.46% | 5.16% |  |  |  |  |  |  |  | 
CC(C)(C)c1ccc(-n2cnc3c(N)ncnc32)cc1 [UNC10225367A] | 79.86 | 128.98 | 104.53 | 71.05 | 12.53% | 8.78% |  |  |  |  |  |  |  | 
Nc1ncc(-c2cccnc2)c2scc(-c3ccc4c(c3)CCN4C(=O)Cc3ccccc3)c12 [UNC10225369A] | 64.72 |  |  | 102.35 | 19.63% | 3.58% |  |  |  |  |  |  | 84.54 | 86.78
CCn1cnc2c(NCc3ccccc3)ncnc21 [UNC10225370A] | 79.45 | 98.37 | 103.57 | 102.90 | 13.91% | 4.85% |  |  |  |  |  |  |  | 
COc1cc2ncn(-c3cc(OCC4CCCO4)c(C(N)=O)s3)c2cc1OC (stereo not drawn) [UNC10225372A] | 162.91 | 86.61 | 87.29 | 102.24 | 10.50% | 6.13% |  |  |  |  |  |  |  | 
CN1CCN(CCCNc2nccc(-c3c(-c4ccc(F)cc4)nn4cc(C(F)(F)F)ccc34)n2)CC1 [UNC10225376A] | 108.97 | 120.10 | 102.44 | 97.99 | 16.03% | 5.73% |  |  |  |  |  |  |  | 
